From patent US20260345798A1, “COMPOUNDS AND METHODS OF USE THEREOF” (Virginia Commonwealth University, priority 2023, published 2026)
Residues, ends and D or L forms follow the SMILES beside them.

Tests used:
MDA-9/Syntenin = target: T1, MDA-9/Syntenin (Homo sapiens, UniProt O00560); assay: NMR titration / ITC binding and HSQC mapping
T1 sequence (O00560 1-298): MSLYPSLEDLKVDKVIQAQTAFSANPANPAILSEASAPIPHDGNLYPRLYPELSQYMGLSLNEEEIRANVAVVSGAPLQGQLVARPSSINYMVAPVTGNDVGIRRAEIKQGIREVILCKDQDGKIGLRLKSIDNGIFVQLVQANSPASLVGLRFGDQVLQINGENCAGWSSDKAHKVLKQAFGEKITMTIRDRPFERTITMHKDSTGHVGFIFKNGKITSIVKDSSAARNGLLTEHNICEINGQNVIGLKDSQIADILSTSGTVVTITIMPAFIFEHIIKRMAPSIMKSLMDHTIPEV

[1] = tested on: X11/mint scaffold protein; assay: Binding to other PDZ domains: X11/mint; conditions: 33% identity with PDZ1
A-375 and C8161.9 cells = assay: Boyden chamber invasion assay, comparison with PDZ1i; format: cell-based, human; conditions: 25 μM each
Experimental: (§1) FIG. 11A is a series of photomicrographs taken at 10× magnification showing invasion assays of A-375 cells treated with DMSO vehicle, 25 μM PDZ1i, or 25 μM IVMT-Rx-3, as well as histograms showing quantification of the average percent invasion of three independent experiments±standard deviation. *: Statistical significance (p<0.05).
as §1, with “11B” for “11A”, “C8161.9” for “A-375”, “IVMT-Rx-3 in C8161.9 melanoma cells,” for “IVMT-Rx-3,”
(§2) Invasive phenotype was measured using a Boyden Chamber Assay as described previously (6,8,18). Briefly, 25,000 cells were plated on the upper chamber of the trans well in FBS free media and allowed to invade the Matrigel layer towards the bottom chamber supplemented with complete media. Twenty-four hr. after plating, the invaded cells were fixed and counted under a bright field microscope.

[2] = tested on: Src, P38 and IκB phosphorylation in A-375 and C8161.9 cells; assay: Western blotting of signaling proteins, human melanoma cells; format: cell-based; conditions: 24 hours
Experimental: FIG. 4B is a Western blot of C8161.9 and A-375 cells treated with indicated doses of IVMT-Rx-3 for 24 hours. Cell lysates were subjected to Western blotting analysis to determine the expression levels of various signaling proteins (as shown) associated with MDA-9/Syntenin: Src interactions. Western blotting densitometry and relative intensity of protein bands were calculated using Image J software. The values are provided.
(§3) Western blotting was performed following a standard protocol as described previously (6,8,18,29). Antibodies used in this study were purchased from Cell Signaling Technology (Boston, MA): p-Src (Y416), total Src, matrix metalloproteinase-2 (MMP-2) and matrix metaloproteinase-9 (MMP-9), focal adhesion kinase (FAK), p IKKα/β (S176/180), total IKK, p P38 (T180/Y182) and total P38. MDA-9/Syntenin antibody was obtained from Abnova Inc. (Taiwan). β-actin (Sigma-Aldrich, St. Louis, MO) was used as an endogenous loading control. Fibronectin was purchased from EMD Millipore (Billerica, MA).

[3] = tested on: MDA-9/Syntenin: Src signaling pathways in melanoma cell lines; assay: Western blotting of signaling proteins, other melanoma cell lines; format: cell-based, human; conditions: various melanoma cell lines; Western blot FIG. 12
Experimental: FIG. 12 is a Western blot of different signaling molecules as indicated for indicated cell lines treated with IVMT-Rx-3 at varying concentrations.
as §3

NF-κB = NF-κB (p65) transcription factor assay; format: cell-based, human; conditions: A-375 and C8161.9 melanoma cells
Experimental: FIG. 4C is a histogram showing the NF-κB transcriptional activity of A-375 melanoma cells treated with the indicated doses of IVMT-Rx-3. *: Statistical significance (p<0.05).
FIG. 4D is a histogram showing the NF-κB transcriptional activity of C8161.9 melanoma cells treated with the indicated doses of IVMT-Rx-3. *: Statistical significance (p<0.05).
NF-κB transcription factor assay kits were obtained from Cayman Chemical (Ann Arbor, MI, USA) (Cat #10007889). Nuclear extracts were prepared from cells using the Nuclear and Cytoplasmic Extraction kit (Thermo Fisher Scientific, USA). The samples were then added to pretreated wells for 1 hr. after which they were washed with a wash buffer provided in the kit. The NF-κB antibody was then added with a 1 hr. incubation and after washing the antibody, HRP-conjugated secondary antibody was added for 1 hr. Lastly, a developing solution followed by a stop solution was added. The wells were analyzed with a microplate reader for absorbance at 450 nm.

B16 melanoma cells = assay: Boyden chamber invasion assay, B16 cells; format: cell-based; conditions: B16 mouse melanoma cells
Experimental: FIG. 13A is a series of photomicrographs of B16 melanoma cells treated with IVMT-Rx-3 at varying concentrations, as well as a histogram showing quantification of the average percentage (of control) of invaded cells. Invasion was assayed using a Boyden chamber. *: Statistical significance (p<0.05).
as §2

[4] = tested on: Src and P38 in B16 melanoma cells; assay: Western blotting, B16 cells; format: cell-based; conditions: B16 mouse melanoma cells, Western blot
Experimental: as §3

IL-6, IL-10, IL-16 [5] = assay: IL-6, IL-10, IL-16 mRNA by semiquantitative RT-PCR, human melanoma cells; format: cell-based; conditions: human melanoma cells (A-375, C8161.9)
Experimental: (§4) FIG. 14 is a series of histograms showing the IL-6, IL-10, and IL-16 mRNA fold change in RNA lysates prepared from A-375, C8161.9, and B16 cells treated with IVMT-Rx-3 at varying concentrations as indicated.
(§5) Total cellular RNA was extracted using an RNAeasy kit (Qiagen, Germany) as described previously (8,9). All Taqman probes used in this study were obtained from Applied Biosystems (Applied Biosystems, Foster City, CA). Real time PCR was performed using an ABI ViiA7 fast real-time PCR system (Applied Biosystems, Foster City, CA).

IL-6, IL-10, IL-16 [6] = assay: IL-6, IL-10, IL-16 mRNA by semiquantitative RT-PCR, murine melanoma cells; format: cell-based, mouse; conditions: murine melanoma cells (B16)
Experimental: as §4, §5

IGFBP-2 = IGFBP-2 in blood plasma of B16-injected mice; format: in vivo, mouse; conditions: 30 mg/kg I.P., 6 injections
Excerpt: FIG. 6C is a histogram showing the IGFBP-2 expression measured in blood plasma from animals (n=7) in the treatment groups described in FIG. 6A. ****: Statistical significance (p<0.0001).

Cc1cc(NC(=O)c2nc3[nH]c4c(c(=O)n3n2)CCC4)c(C)cc1NC(=O)CCOCCC(=O)N[C@H](C(=O)N[C@@H](CC(N)=O)C(=O)N[C@@H](CCC(=O)O)C(=O)N[C@@H](Cc1ccc(O)cc1)C(=O)N[C@@H](Cc1ccc(O)cc1)C(=O)N[C@H](C(=O)O)C(C)C)[C@@H](C)O [IVMT-Rx-3] (HELM PEPTIDE1{[Cc1cc(NC(=O)c2nc3[nH]c4c(c(=O)n3n2)CCC4)c(C)cc1NC(=O)CCOCCC(=O)[*:2]].T.N.E.Y.Y.V}$$$$V2.0)
Kd (MDA-9/Syntenin; ITC, fitted to a single binding event, NMR titration provides similar values, read-out: overall dissociation constant of the complex, Kd): < 1000 nM
induction of chemical shifts (NMR mapping) (MDA-9/Syntenin; NMR mapping studies): induces chemical shifts in both domains
perturbation of Met201 (PDZ2) and Met188 (PDZ1) (MDA-9/Syntenin; [13C,1H]-HSQC, 20 μM 13C-Met-labeled MDA-9/Syntenin, 40 μM compound): both clearly perturbed
binding to X11/mint scaffold protein [1]: did not bind appreciably
anti-invasive efficacy in comparison with PDZ1i (A-375 and C8161.9 cells): significantly enhanced the anti-invasive efficacy in comparison with PDZ1i
Src activation (Src phosphorylation) [2]: significantly reduced Src activation
levels of p-P38, p-Src, and pIκB [2]: Reduced levels
inactivation of MDA-9/Syntenin: Src associated signaling pathways [3]: inactivation of various signaling pathways
transcriptional activity of NF-κB (NF-κB): suppressed the transcriptional activity of NF-κB in a dose-dependent manner
invasion of B16 cells (B16 melanoma cells): inhibition of invasion
Src and downstream P38 [4]: downregulation of Src and downstream P38
IL-6, IL-10, IL-16 expression (IL-6, IL-10, IL-16 [5]): Down-regulation
IL-6, IL-10, IL-16 expression (IL-6, IL-10, IL-16 [6]): Down-regulation
IGFBP-2 levels in blood plasma (IGFBP-2): down regulation
